How the values were obtained:
[1] = system: T lymphocyte cell line Jurkat E6-1; assay: Cytotoxicity (CCK-8 viability); type: cell-based; details: 20 h culture
Experimental: The cytotoxicities of the compounds of Examples 1-19 and Comparative Examples 1-3 to T lymphocyte cell line Jurkat E6-1 provided from the Korea Cell Line Bank were measured using a cell counting kit (CCK-8, Dojindo). After the cell line was allowed to grow in RPMI1640 medium supplemented with 10% FBS, 100 U/mL penicillin, and 100 μg/mL streptomycin, cells were plated in each well of a 96-well plate at a density of 2λ10^4 cells/well and treated with each of the compounds of Examples 1-19 and Comparative Examples 1-3. After culture in a 5% CO2 incubator at 37° C. for 20 h, CCK-8 solution was added to a concentration of 10%, followed by reculture in a 5% CO2 incubator at 37° C. for one and a half hours. The absorbance was measured at 450 nm (Reference: 650 nm) and was expressed in percent relative to the value […] from non-treated cells (viability 100%).
In Table 1, the number 100 corresponds to a viability of 100%.

[2] = system: BALB/c mice with psoriasis induced by Aldara cream (imiquimod); assay: Imiquimod-induced psoriasis model; type: in vivo; details: for psoriatic skin lesions (photographs, FIG. 49): 40 mg/kg intraperitoneal in 50 μL DMSO; for number of CD4 T cells in spleen (flow cytometry) / number of CD8 T cells in spleen (flow cytometry) / inflammatory cell infiltration (H&E staining of skin) / erythema / skin scaling / skin thickness: 40 mg/kg intraperitoneal; for number of CD4 T cells in spleen (flow cytometry) / number of CD8 T cells in spleen (flow cytometry): splenic T cells; for inflammatory cell infiltration (H&E staining of skin): versus negative control and DMSO group; for erythema / skin scaling / skin thickness: visual observation, P<0.05
Experimental: A test was conducted to evaluate the alleviation of psoriatic skin lesions using psoriasis animals. To this end, first, BALB/c mice (7 weeks old/20 g/female) purchased from Hana Biotech Co., Ltd., Korea were acclimated to the vivarium for a period of one week. After that, the hair on the back of the mice was shaved and completely removed with a depilatory cream (Niclean cream (thioglycolic acid […], Ildong Pharmaceutical Co., Ltd., Korea)). The animals were bred for 24 h. 80 mg of Aldara® cream (imiquimod 4 mg) was applied daily for 1 week (7 days, 7 times in total) to induce psoriasis, as shown in FIG. 49. Thereafter, 80 mg of Aldara® cream (imiquimod 4 mg) was continuously applied to each group for 10 days. During the administration, an observation was made as to whether psoriasis was alleviated. As a result, skin lesions were alleviated in the group administered the inventive compound than in the negative control or the DMSO-administered group, as shown in FIG. 49.
After the skin tissues of the test subjects were subjected to H&E staining according to the above schedule, the degrees of inflammatory cell infiltration were observed.
FIGS. 56 and 57 show the results of flow cytometry for the groups administered the compounds of Examples 14 and 17. The in vivo effects of the compounds of Examples 14 and 17 on T cells in the test subjects were investigated. To this end, the spleens were harvested from the mice administered each compound and T cells were extracted from the harvested spleens.

SMILES | viability relative to non-treated cells, 10 μM (%) [1] | viability relative to non-treated cells, 20 μM (%) [1] | viability relative to non-treated cells, 30 μM (%) [1] | psoriatic skin lesions (photographs, FIG. 49) [2] | number of CD4 T cells in spleen (flow cytometry) [2] | number of CD8 T cells in spleen (flow cytometry) [2] | inflammatory cell infiltration (H&E staining of skin) [2] | erythema [2] | skin scaling [2] | skin thickness [2]
CCCCCCCCCCCCNC(=O)c1ccccc1O [Example 7] | 82% | 79.3% | 66% | – | – | – | – | – | – | –
CC(C)=CCC/C(C)=C/CNC(=O)c1ccccc1Br [Example 14] | 96.9% | 96.6% | 95.4% | alleviated | decreases | decreases | less inflammatory cell infiltration | significant decreases | significant decreases | significant decreases
CCCCCCNC(=O)c1ccccc1OC [Example 4] | 96% | 92% | 88% | – | – | – | – | – | – | –
C=CCCCCCCCCCNC(=O)c1ccccc1F [Example 15] | 88.8% | 91.2% | 93.5% | – | – | – | – | – | – | –
CC(C)=CCC/C(C)=C/CNC(=O)c1ccccc1F [Example 16] | 89.3% | 85.7% | 76.3% | – | – | – | – | – | – | –
CCCCC(CC)CNC(=O)c1ccccc1Br (centres unmarked) [Example 9] | 95.3% | 95.1% | 92.0% | – | – | – | – | – | – | –
CCCCC(CC)CNC(=O)c1ccccc1F (centres unmarked) [Example 8] | 94.7% | 92.2% | 90.9% | – | – | – | – | – | – | –
CCCCCCCCCCNC(=O)c1ccccc1Br [Example 12] | 91% | 85.3% | 78.5% | – | – | – | – | – | – | –
CC(C)=CCC/C(C)=C/CC/C(C)=C/COC(=O)c1ccccc1Br [Example 17] | 73.6% | 72.1% | 72.7% | alleviated | decreases | decreases | less inflammatory cell infiltration | significant decreases | significant decreases | significant decreases
C=CCCCCCCCCCNC(=O)c1ccccc1Br [Example 13] | 98.8% | 97.9% | 90.3% | – | – | – | – | – | – | –

— patent publication US20240307340A1, “IMMUNOSUPPRESSIVE PHARMACEUTICAL COMPOSITION INCLUDING BENZENE DERIVATIVE AS IMMUNOSUPPRESSANT” (INJE UNIVERSITY INDUSTRY-ACADEMIC COOPERATION FOUNDATION, priority 2021, published 2024)
